# Test results reported in US11925667B2, “Engineered therapeutic probiotic system and method” (priority 2018, dated 2024).
# Like-named read-outs stand apart in the source and are kept apart here.
# Key:
# [1] = test system: human esophageal smooth muscle primary cells (SMCs); assay: Cell toxicity assay (MTT), SMC; type: cell-based; conditions: for GI50: Homo sapiens, read-out: GI 50 value
# From the text: (§1) Cell culture and toxicity assay. While HCT116 human colorectal carcinoma cells (ATCC, Manassas, USA), LoVo human colorectal adenocarcinoma cells (ATCC), AGS human gastric adenocarcinoma cells (ATCC), MCF7 human breast adenocarcinoma cells (ATCC), human esophageal smooth muscle primary cells (SMCs) (Cell Biologics, Chicago, USA) and CT26 mouse colorectal carcinoma cells (ATCC) are used according to the claimed invention, other illustrative cell lines may similarly be utilized. Cells are cleared of mycoplasma contamination prior to use using Mycoalert™ PLUS mycoplasma detection kit (Lonza). HCT116 cells are cultured in McCoy's 5A medium, LoVo and AGS cells in Ham's F12 medium, MCF7 cells in DMEM medium, CT26 cells in RPMI medium, and SMCs in the specific medium kit purchased from Cell Biologics. In this illustrative embodiment, unless otherwise stated all cell culture media are purchased from Lonza (Walkersville, USA) and are supplemented with antibiotics (penicillin/streptomycin) and 5% fetal bovine serum (FBS, v/v). SMCs are prepared according to the manufacturer's protocol. All cell cultures are maintained at 37° C. and 5% CO2.
# The MTT readout is fitted to a dose-response curve to determine the GI50 value (Eq. 2). Absorbance (570 nm)=Bottom+(Top−Bottom)/(1+10^(([Inhibitor]−Log 10 GI50))) (Eq. 2) HlpA binding assay. The HlpA gene sequence is optimized for E. coli expression, and the gene is cloned into a pET28b vector with an N-terminal GFP. GFP-HlpA and GFP are expressed using similar purification protocols, described above. […] Treated and adherent cells are washed with sterile PBS twice before staining with DAPI. The GFP/DAPI ratio is used to evaluate the binding ratio of protein binding per cell (Eq. 3). Ratio (GFP/DAPI)=Bottom+(Top−Bottom)/(1+10^(([Ligand]−Log 10 KD))) (Eq. 3) Similarly, N-terminal INP tagged to HlpA are cloned into the pBbE8K vector and co390 transformed with pBbE8a-RFP into E. coli Nissle. E. coli cells are cultured in LB supplemented with 50 mg/L ampicillin and 25 mg/L kanamycin and are induced with 1% arabinose. […] The cancer 394 cells are washed twice with 1×PBS and measured for DAPI and RFP emission. The fluorescence emission is compared on the linear standard curve of stained cells against the average fluorescence emission to determine the binding ratio of E. coli to cancer cells.
# [2] = test system: AGS human gastric adenocarcinoma cells; assay: Cell toxicity assay (MTT), AGS; type: cell-based; conditions: for Complete inhibition: AGS gastric; for GI50: Homo sapiens, read-out: GI 50 value
# From the text: as §1, with “CO2. Cells are seeded in 96-well plates or on glass coverslips in 6-well plates at a density of […] and are cultured at 37° C. and 5% CO2 a day before protein-binding studies or co-culturing with transformed Nissle cells.” for “CO2.”
# (§2) Cellular viability is measured at 3 hours, 24 hours and 72 hours post-treatment using the MTT assay (Sigma, St. Louis, USA). The inhibitory activity of myrosinase-converted AITC is performed by incubating cancer cells grown to 60% confluency with 0.1 μM of purified secreted I1 myrosinase with 0˜10 mM sinigrin at 37° C. and 5% CO2 and was sampled at 3 hours, 24 hours and 72 hours post-treatment. The MTT readout is fitted to a dose-response curve to determine the GI50 value (Eq. 2). Absorbance (570 nm)=Bottom+(Top−Bottom)/(1+10^(([Inhibitor]−Log 10 GI50))) (Eq. 2) HlpA binding assay. The HlpA gene sequence is optimized for E. coli expression, and the gene is cloned into a pET28b vector with an N-terminal GFP. GFP-HlpA and GFP are expressed using similar purification protocols, described above. […] Treated and adherent cells are washed with sterile PBS twice before staining with DAPI. The GFP/DAPI ratio is used to evaluate the binding ratio of protein binding per cell (Eq. 3). […] The cancer 394 cells are washed twice with 1×PBS and measured for DAPI and RFP emission. The fluorescence emission is compared on the linear standard curve of stained cells against the average fluorescence emission to determine the binding ratio of E. coli to cancer cells.
# [3] = test system: LoVo human colorectal adenocarcinoma cells; assay: Cell toxicity assay (MTT), LoVo; type: cell-based; conditions: for GI50: Homo sapiens, LoVo, read-out: GI 50 value; for Complete inhibition: LoVo colorectal
# From the text: as §1, with “CO2. Cells are seeded in 96-well plates or on glass coverslips in 6-well plates at a density of […] and are cultured at 37° C. and 5% CO2 a day before protein-binding studies or co-culturing with transformed Nissle cells.” for “CO2.”
# as §2
# [4] = test system: CT26 mouse colorectal carcinoma cells; assay: Cell toxicity assay (MTT), CT26; type: cell-based; conditions: for Complete inhibition: CT26 colorectal; for GI50: Mus musculus, CT26, read-out: GI 50 value
# From the text: as §1, with “CO2. Cells are seeded in 96-well plates or on glass coverslips in 6-well plates at a density of […] and are cultured at 37° C. and 5% CO2 a day before protein-binding studies or co-culturing with transformed Nissle cells.” for “CO2.”
# as §2
# [5] = test system: HCT116 human colorectal carcinoma cells; assay: Cell toxicity assay (MTT), HCT116; type: cell-based; conditions: for Complete inhibition: HCT116 colorectal; for GI50: Homo sapiens, HCT-116, read-out: GI 50 value
# From the text: as §1, with “CO2. Cells are seeded in 96-well plates or on glass coverslips in 6-well plates at a density of […] and are cultured at 37° C. and 5% CO2 a day before protein-binding studies or co-culturing with transformed Nissle cells.” for “CO2.”
# as §2
# [6] = test system: MCF7 human breast adenocarcinoma cells; assay: Cell toxicity assay (MTT), MCF7; type: cell-based; conditions: for GI50: Homo sapiens, MCF7, read-out: GI 50 value; for Complete inhibition: MCF7 breast
# From the text: as §1, with “CO2. Cells are seeded in 96-well plates or on glass coverslips in 6-well plates at a density of […] and are cultured at 37° C. and 5% CO2 a day before protein-binding studies or co-culturing with transformed Nissle cells.” for “CO2.”
# as §2
# [7] = test system: various colorectal, gastric and breast cancer cell lines; assay: Growth inhibition (MTT), summary over cancer cell lines; type: cell-based; conditions: read-out: 50% growth inhibition (GI50) values
# From the text: as §1, with “In this illustrative embodiment, unless otherwise stated all cell culture media are purchased from Lonza (Walkersville, USA) and are supplemented with antibiotics (penicillin/streptomycin) and 5% fetal bovine serum (FBS, v/v). SMCs are prepared according to the manufacturer's protocol. All cell cultures are maintained at 37° C. and 5% CO2.” left out
# (§3) The MTT readout is fitted to a dose-response curve to determine the GI50 value (Eq. 2). Absorbance (570 nm)=Bottom+(Top−Bottom)/(1+10^(([Inhibitor]−Log 10 GI50))) (Eq. 2) HlpA binding assay. […] The cancer 394 cells are washed twice with 1×PBS and measured for DAPI and RFP emission. The fluorescence emission is compared on the linear standard curve of stained cells against the average fluorescence emission to determine the binding ratio of E. coli to cancer cells.
# [8] = test system: various colorectal, gastric and breast cancer cell lines; assay: Growth inhibition in cancer cell lines; type: cell-based
# From the text: as §1, with “In this illustrative embodiment, unless otherwise stated all cell culture media are purchased from Lonza (Walkersville, USA) and are supplemented with antibiotics (penicillin/streptomycin) and 5% fetal bovine serum (FBS, v/v). SMCs are prepared according to the manufacturer's protocol. All cell cultures are maintained at 37° C. and 5% CO2.” left out
# as §3, with “Cellular viability is measured at 3 hours, 24 hours and 72 hours post-treatment using the MTT assay (Sigma, St. Louis, USA). […] The MTT” for “The MTT”
# [9] = test system: primary stem cells or other non-cancer cell lines; conditions: in words; cited from earlier work
SMILES,GI50 [1],inhibition of primary smooth muscle cells [1],Complete inhibition [2],GI50 [2],GI50 [3],Complete inhibition [3],Complete inhibition [4],GI50 [4],Complete inhibition [5],GI50 [5],GI50 [6],Complete inhibition [6],GI50 [7],Inhibition of cancer cell growth compared with L-sulforaphane ([8]; in words),"GI50 ([1]; SMC primary cells, MTT)","GI50 ([7]; various colorectal, gastric and breast cancer cell lines)",Growth inhibition observed within ([8]; upon adding L-sulforaphane),Effect on primary stem cells or other non-cancer cell lines [9]
"C=CCN=C=S [AITC, allyl isothiocyanate]",589 µM,does not inhibit,<24 h,18 µM,74 µM,<24 h,<24 h,15 µM,<24 h,116 µM,104 µM,<3 h,~100 µM,poorer efficacy compared with L-sulforaphane,–,–,–,–
C[S@@+]([O-])CCCCN=C=S [L-sulforaphane],–,does not inhibit,<24 h,15 µM,23 µM,<24 h,<24 h,45 µM,<24 h,30 µM,29 µM,<3 h,–,–,375 µM,< 100 µM,≤ 24 h,does not affect
